The values below are quoted from earlier work in patent US6319912A, “Cyclic regimens using 2,1-benzisothiazoline 2,2-dioxides” (American Home Products Corporation, priority 2000, dated 2001).

For this data set, the system named is hormone dependent prostate cancer. The note with it: literature, Michna et al 1995.

Turning to `CN(C)c1ccc([C@H]2C[C@]3(C)[C@@H](CC[C@]3(O)CCCO)[C@@H]3CCC4=CC(=O)CCC4=C32)cc1` [onapristone], the “effectiveness in a model of hormone dependent prostate cancer” value was “effective”.
Regarding `CC#C[C@]1(O)CC[C@H]2[C@@H]3CCC4=CC(=O)CCC4=C3[C@@H](c3ccc(N(C)C)cc3)C[C@@]21C` [mifepristone], the “effectiveness in a model of hormone dependent prostate cancer” value is reported as “effective”.
